melting point	SMILES
84 to 86 °C	CC(=O)NC[C@H]1CN(c2ccc3c(c2)CS(=O)(=O)N3C)C(=O)O1
84 to 87 °C (dec.)	CC(=O)NC[C@H]1CN(c2ccc3c(c2)CS(=O)(=O)N3CCF)C(=O)O1
124 to 126 °C (dec.)	CC(=O)NC[C@H]1CN(c2ccc3c(c2)CS(=O)(=O)N3CC#N)C(=O)O1
90 to 93 °C (dec.)	CC(=S)NC[C@H]1CN(c2ccc3c(c2)CS(=O)(=O)N3CCF)C(=O)O1

Source: patent US20010047018A1 (published 2001)
